Source: article PMC6770071, “XIAP as a Target of New Small Organic Natural Molecules Inducing Human Cancer Cell Death” (Cancers, 2019)
Converted amounts (≈) assume the structure as drawn.

What was measured:
PC-3 cells = experiment: MTT cell viability assay, PC-3 prostate cancer cells; type: cell-based; details: Homo sapiens, 24 h
Procedure: (§1) Human U373 glioma, MCF7 breast cancer, A549 lung cancer and PC-3 prostate cancer cells were grown in Dulbecco’s Modified Eagle Medium (DMEM), supplemented with 10% foetal bovine serum, 2 mM glutamine, 100 U/mL penicillin/streptomycin, at 37 °C in a humidified atmosphere containing 5% CO2 (logarithmic growth phase, routine passages every 3 days). The human breast epithelial cell line MCF10 was cultured in DMEM/F12 Ham’s Mixture supplemented with 5% horse serum, epithelial growth factor 20 ng/mL, insulin 10 μg/mL, hydrocortisone 0.5 mg/mL, cholera toxin 100 ng/mL, and 100 U/mL penicillin/streptomycin. […]
(§2) U373, MCF7, A549, PC-3, HUVEC, and MCF10 cell viability was determined by MTT assay using published protocols. MTT absorbance was quantified spectrophotometrically using a Glomax Multi Detection System microplate reader (Promega, Milano, Italy).
(§3) Statistical significance of raw data between the groups in each experiment was evaluated using unpaired Student’s t-test (single comparisons) or one-way ANOVA followed by the Newman-Keuls post-test (multiple comparisons). The IC50 and Emax concentration were determined by non-linear regression curve analysis of the concentration-effect responses. […] The results were expressed as means ± standard error of mean (SEM) of the indicated n values.

A549 cells = experiment: MTT cell viability assay, A549 lung cancer cells; type: cell-based; details: Homo sapiens, 24 h
Procedure: as §1, §2, §3

caspase 7 = experiment: Cleaved-caspase 7 western blot in MCF10 cells; type: cell-based, human; details: MCF10, 6 h; gibbilimbol B/eriopodol A 30 µg/mL, erioquinol 10 µg/mL
Source text: Using published protocols, MCF7 and MCF10 cells were homogenised in RIPA lysis buffer, supplemented with a cocktail of protease inhibitors (cOmplete; Roche Diagnostics, Milano, Italy). Equal amounts of proteins were separated by 4–20% SDS-polyacrylamide gel electrophoresis (Criterion TGX Stain-free precast gels and Criterion Cell system; Bio-Rad, Hercules, CA, USA) and transferred onto nitrocellulose membrane using a Bio-Rad Trans-Blot Turbo System. When indicated, the membranes were probed using the rabbit monoclonal anti-cleaved caspase 7 and anti-XIAP (Cell Signaling Technology) primary antibodies. After the incubation with the appropriate horseradish-peroxidase-conjugated secondary antibody (Cell Signaling Technology), bands were visualised using the Clarity Western ECL substrate with a ChemiDoc MP imaging system (Bio-Rad). To monitor for potential artefacts in loading and transfer among samples in different lanes, the blots were routinely treated with the Restore Western Blot Stripping Buffer (ThermoFisher Scientific) and re-probed with the goat anti-Lactate dehydrogenase (LDH)-A (Santa Cruz Biotechnology) and the mouse anti-vinculin primary antibodies. The stain-free gel was used as loading control as well. When appropriated, bands were quantified for densitometry using the Bio-Rad Image Lab software.
Figure S6. Western blot. […]

Structure (SMILES) | IC50 (PC-3 cells) [µg/mL] | IC50 (A549 cells) [µg/mL] | activation of caspase 7 (caspase 7)
CCCCCC/C=C\CCC1(O)C=CC(=O)C=C1 [Erioquinol, (Z)-4-(dec-3′-enyl)-4-hydroxycyclohexa-2,5-dien-1-one] | 2.21 (≈ 8.9 µM) | 2.65 (≈ 10.7 µM) | –
CCCCCC/C=C/CCc1ccc(O)cc1 [Gibbilimbol B, (E)-4-(dec-3′-enyl)phenol] | – | – | activation of caspase 7
